The text below walks through data of patent publication US11035852B2, “Identifying drug candidates for treating polycystic kidney disease using organoids generated from primary cells” (UMC Utrecht Holding B.V., priority 2011, dated 2021).

Usually Ki stands for the dissociation constant of the complex between target and ligand, obtained from inhibition or displacement. A word on the EC50: it is the concentration that produces a half-maximal response.

Read-outs that look alike come from different tables or passages of the source.

For experiment [1], the target named is T1, CFTR (Homo sapiens, UniProt P13569). It is filed as cell-based.
Target sequence in this assay (P13569 whole entry, looked up): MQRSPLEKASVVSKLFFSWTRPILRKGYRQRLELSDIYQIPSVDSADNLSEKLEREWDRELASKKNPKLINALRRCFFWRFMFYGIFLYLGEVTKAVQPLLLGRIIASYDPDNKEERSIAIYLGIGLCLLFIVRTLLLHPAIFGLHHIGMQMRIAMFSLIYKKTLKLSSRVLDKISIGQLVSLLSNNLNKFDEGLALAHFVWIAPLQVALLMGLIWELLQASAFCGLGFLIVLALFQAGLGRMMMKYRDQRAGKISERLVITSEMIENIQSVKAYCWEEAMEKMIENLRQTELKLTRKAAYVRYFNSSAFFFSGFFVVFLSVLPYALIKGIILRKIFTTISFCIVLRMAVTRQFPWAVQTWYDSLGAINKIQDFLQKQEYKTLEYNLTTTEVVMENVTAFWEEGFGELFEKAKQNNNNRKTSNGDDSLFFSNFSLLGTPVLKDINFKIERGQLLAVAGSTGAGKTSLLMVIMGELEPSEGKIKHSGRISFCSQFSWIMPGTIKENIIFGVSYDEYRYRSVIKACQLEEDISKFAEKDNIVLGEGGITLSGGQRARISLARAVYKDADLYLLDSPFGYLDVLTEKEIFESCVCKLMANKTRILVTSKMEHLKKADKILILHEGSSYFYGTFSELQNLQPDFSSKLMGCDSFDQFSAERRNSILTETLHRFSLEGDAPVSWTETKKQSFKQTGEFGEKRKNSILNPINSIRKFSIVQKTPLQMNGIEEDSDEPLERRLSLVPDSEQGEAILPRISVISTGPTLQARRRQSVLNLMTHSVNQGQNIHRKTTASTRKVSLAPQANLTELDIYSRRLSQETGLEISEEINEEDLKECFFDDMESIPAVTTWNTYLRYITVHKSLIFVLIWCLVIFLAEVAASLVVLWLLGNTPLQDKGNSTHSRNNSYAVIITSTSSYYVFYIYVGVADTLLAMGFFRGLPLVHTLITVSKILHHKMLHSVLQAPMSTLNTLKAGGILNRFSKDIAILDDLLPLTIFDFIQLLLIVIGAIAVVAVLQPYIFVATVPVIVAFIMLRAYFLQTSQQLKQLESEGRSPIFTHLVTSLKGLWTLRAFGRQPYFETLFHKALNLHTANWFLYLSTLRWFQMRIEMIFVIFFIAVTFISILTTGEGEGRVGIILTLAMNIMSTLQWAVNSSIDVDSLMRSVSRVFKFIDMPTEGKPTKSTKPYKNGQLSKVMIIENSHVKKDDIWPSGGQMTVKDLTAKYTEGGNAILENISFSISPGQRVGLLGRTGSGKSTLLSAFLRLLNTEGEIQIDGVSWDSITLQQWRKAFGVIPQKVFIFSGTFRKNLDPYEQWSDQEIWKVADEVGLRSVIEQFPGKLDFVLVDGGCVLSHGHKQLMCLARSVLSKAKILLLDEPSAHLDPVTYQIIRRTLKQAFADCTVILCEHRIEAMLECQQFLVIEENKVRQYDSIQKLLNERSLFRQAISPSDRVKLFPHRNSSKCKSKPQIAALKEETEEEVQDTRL
In experiment [2] the target is T1, CFTR. The following applies: CFTR blocker; read-out: Potency: Ki; cited from earlier work.
Target sequence in this assay (P13569 whole entry): as the sequence (P13569 whole entry, looked up) above
In experiment [3] the test system is CFTR. The following applies: CFTR corrector, cited from earlier work; for EC50: read-out: Potency: EC50.
For experiment [4], the system named is CFTR. The following applies: cited from earlier work.

`O=C(CNc1ccc2ccccc2c1)N/N=C/c1cc(Br)c(O)c(Br)c1O` [B2, (Naphthalen-2-ylamino)-acetic acid (3,5-dibromo-2,4,- dihydroxy-benzylidene)-hydrazide]: in experiment [1] (Example 2, human healthy control organoids, 3 hours pre-incubation, 50 μM), the “Effect of CFTR inhibitors on forskolin-stimulated swelling” value was “reduced”.
Turning to `Cc1ccc(S(=O)(=O)NC(=O)Nc2ccc([N+](=O)[O-])cc2)cc1` [B3, Diarylsulfonyl- urea], the Ki in experiment [2] was > 100 µM.
`Cc1ccc(C2Nc3ccccc3-n3c(-c4ccccc4)c4c(=O)n(C)c(=O)n(C)c4c32)o1` (stereo not shown) [B6, 7,9-dimethyl-11-phenyl-6-(5-methylfuran-2-yl)-5,6-dihydro-pyrimido-[4′,5′-3,4]pyrrolo[1,2-a]quinoxaline-8,10-(7H,9H)-dione]: the Ki in experiment [2] was 0.09 µM.
With `COc1ccc2nc(Nc3nc(O)cc(CSc4nc5ccccc5[nH]4)n3)nc(C)c2c1` [C1, 6-(1H-Benzoimidazol-2-ylsulfanyl-methyl)-2-(6-methoxy-4-methyl-quinazolin-2-ylamino)-pyrimidin-4-ol], the “Potency: Ks” value in experiment [3] is on record as “Reference #** 11 Potency: Ks = 3 microM Solvent: DMSO Hints For Use: M.W.: 445.5”.
Take `COc1ccc(S(=O)(=O)N2CCN(C(C)c3nc(OC4CCCCC4)c4ccccc4n3)CC2)cc1` (stereo not shown) [C3, Cyclohexyloxy-2-{1-[4-(4-methoxy-benzensulfonyl)-piperazin-1-yl]-ethyl}-quinazoline]: the 50% effective concentration (EC50) in experiment [3] is 2 µM.
`COc1ccc(Cl)cc1Nc1nc(-c2sc(NC(=O)c3ccccc3)nc2C)cs1` [C4, N-[2-(5-Chloro-2-methoxy-phenylamino)-4′-methyl-[4,5′]bithiazolyl-2′-yl]-benzamide]: the concentration for a half-maximal effect (EC50) in experiment [3] is 2 µM.
With `Cc1cc(C)c2c(C)cc(Nc3ccccc3)nc2c1` [C5, 4,5,7-trimethyl N-phenylquinolin-2-amine], the EC50 in experiment [3] is 13 µM.
Take `Cc1cc(Nc2ccc(Br)cc2)nc2ccccc12` [C6, N-(4-bromophenyl)-4-methylquinolin-2-amine]: the EC50 in experiment [3] is 8 µM.
Consider `O=S(=O)(c1ccc(Cl)cc1)N1CCN(c2ccnc3cc(Cl)ccc23)CC1` [C9, 7-chloro-4-(4-(4-chlorophenylsul-fonyl)piperazin-1-yl)quinoline], for which, in experiment [3], the EC50 is < 1 µM.
Turning to `O=S(=O)(c1ccccc1)N1CCN(c2ccnc3cc(Cl)ccc23)CC1` [C10, 7-chloro-4-(4-(phenylsulfonyl)piperazin-1-yl)quinoline], the 50% effective concentration (EC50) in experiment [3] is > 100 µM.
Turning to `O=C(N/N=C\c1ccc(O)c(O)c1)c1cc2ccccc2cc1O` [C11, (Z)-N′-(3,4-dihydroxyben-zylidene)-3-hydroxy-2-naphtho-hydrazide], the EC50 in experiment [3] is 10 to 20 µM.
As to `Cc1ccc(-c2csc(Nc3ccc(F)cc3)n2)cc1` [C12, N-(4-fluorophenyl)-4-p-tolylthiazol-2-amine], the EC50 in experiment [3] is 5 µM.
In the case of `CC(=O)c1cccc(Nc2nc(-c3sc(NC(=O)c4ccccc4)nc3C)cs2)c1` [C13, N-(2-(3-acetylphenyl-amino)-4′-methyl-4,5′-bithiazol-2′-yl)benzamide], in experiment [3], the EC50 is 2 µM.
Take `COc1ccccc1Nc1ncc(-c2sc(NC(=O)c3ccccc3)nc2C)s1` [C14, N-(2′-(2-methoxyphenylamino)-4-methyl-5,5′-bithiazol-2-yl)benzamide]: the EC50 in experiment [3] was 7 µM.
`C=Cc1ccc(-c2csc(Nc3ccccc3)n2)cc1` [C15, N-phenyl-4-(4-vinylphenyl) thiazol-2-amine]: in experiment [3], the EC50 was 16 µM.
Take `COc1ccc2nc(Nc3nc(=O)c(C)c(C)[nH]3)nc(C)c2c1` [C16, 2-(6-methoxy-4-methylquina-zolin-2-ylamino)-5,6-dimethylpyrimi-din-4(1H)-one]: the EC50 in experiment [3] was 15 µM.
For the compound `COc1ccc(Cl)cc1Nc1nc(-c2sc(NC(=O)C(C)(C)C)nc2C)cs1` [C17, N-(2-(5-chloro-2-methoxyphenylamino)-4′-methyl-4,5′-bithiazol-2′-yl)pivalamide], in experiment [3], the EC50 was 1 to 2 µM.
Take `O=C(Nc1ncc(C(c2ccccc2Cl)N2CCC(O)C2)s1)C1(c2ccc3c(c2)OCO3)CC1` (stereo not shown) [C18, 1-(benzo[d][1,3]di-oxol-5-yl)-N-(5-((2-chlorophenyl)(3-hydroxy-pyrrolidin-1-yl)methyl)thiazol-2-yl)cyclopropane carboxamide]: the “Potency: Ks” value in experiment [3] is “Reference # 24 Name: CF-106951 Potency Ks ~0.6 microM Solvent: DMSO Hints for use: Use at 3 to 6 microM for maximum effect. M.W. 497.99”.
For the compound `Cc1ccc(O)c(-c2cc(-c3ccccc3)[nH]n2)c1` [P1, 4-Methyl-2-(5-phenyl-1H-pyrazol-3-yl)-phenol], the “Potency: Ks” value in experiment [4] (CFTR potentiator) is “Reference #**12 & 15 Name: VRT-532 Potency: Ks 3 to 5 microM Solvent: DMSO Hints For Use: M.W.: 250”.
As for `CC(C)c1ccc(NC(=O)C(c2ccccc2)N(C)C(=O)Cc2c[nH]c3ccccc23)cc1` (stereo not shown) [P2, 2-[(2-1H-lndol-3-yl-acetyl)-methyl-amino]-N-(4-isopropyl-phenyl)-2-phenyl-acetamide], the “Potency: Ks” value in experiment [4] (CFTR potentiator) was “Reference #** 4 Name: PG-01 Potency:Ks = 300 nM Solvent: DMSO Hints For Use: M.W.: 439.5”.
Consider `CCN(c1ccccc1)S(=O)(=O)c1ccc2[nH]cc(C(=O)NCc3ccccc3OC)c(=O)c2c1` [P3, 6-(Ethyl-phenyl-sulfonyl)-4-oxo-1,4-dihydro-quinoline-3-carboxylic acid 2-methoxy-benzylamide], for which the “Potency: Ks” value in experiment [4] (CFTR potentiator) is given as “Reference #** 4 Name: SF-03 Potency: Ks = 30 nM Solvent: DMSO Hints For Use: M.W.: 491.6”.
Regarding `O=c1[nH]c2cc(C(F)(F)F)ccc2n1-c1cccc(Cl)c1` [P4, 1-(3-chlorophenyl)-5-trifluoromethyl-3-hydrobenzi-midazol-2-one], in experiment [4] (CFTR potentiator), the “Potency: Ks” value is “Reference #** 5 Name: UCCF-853 Potency: Ks = 3 microM Solvent: DMSO Hints For Use: M.W.: 312.7”.
On to `NC(=O)c1c(NC(=O)c2ccccc2Cl)sc2c1CCCC2` [P5, 2-(2-Chloro-benzoylamino)-4,5,6,7-tetrahydro-benzo[b] thiophene-3-carboxylic acid amide], for which the “Potency: Ks” value in experiment [4] (CFTR potentiator) is reported as “Reference #** 6 Name: dF508act-02 Potency: Ks = 70 nM Solvent: DMSO Hints For Use: M.W.: 334.8”.
`O=C1Cc2cc(C(F)(F)F)ccc2N1c1cc(Cl)ccc1O` [P7, 1-(5-Chloro-2-hydroxy-phenyl)-5-trifluoromethyl-1,3-dihydro-indol-2-one]: in experiment [4] (CFTR potentiator, read-out: Potency: EC50), the EC50 is 3 µM. In addition, the “Activity in excised patches” value in experiment [4] (excised patches) is recorded as “Does not work in excised patches”.
As for `O=c1cc(-c2ccncc2)oc2c1ccc1ccccc12` [P8, 4-(4-Oxo-4H-benzo[h]chromen-2-yl)-pyridinium; bisulfate], in experiment [4] (CFTR potentiator), the “Potency: Ks” value was “Reference #** 9 and 10 Potency: Ks = 2 microM Solvent: DMSO Hints For Use: M.W.: 371.4”.
Consider `C#CCCc1nn(-c2ccccc2)c(OC)c1C=O` [P9, 3-But-3-ynyl-5-methoxy-1-phenyl-1H-pyrazole-4-carbaldehyde], for which the “Potency: Ks” value in experiment [4] (CFTR potentiator) is “Reference #** 10 Potency: Ks = 10 microM Solvent: DMSO Hints For Use: M.W.: 254.3”.
`ClCc1cc(-c2ccccc2OCc2ccccc2)no1` [P10, 3-(2-Benzyloxy-phenyl)-5-chloromethyl-isoxazole]: the “Potency: Ks” value in experiment [4] (CFTR potentiator) was “Reference #** 10 Potency: Ks >50 microM Solvent: DMSO Hints For Use: M.W.: 299.8”.
For cholera toxin, in experiment [1], the “Increase in organoid size” value was “more than double in size”, the “Organoid swelling induced by stimulus” value was “induce swelling” and the “Time course of swelling response” value was “delayed compared to forskolin”.
